Measured values as given in patent US20090286720A1, “PHARMACEUTICAL COMPOSITION FOR THE DIAGNOSIS, PREVENTION OR TREATMENT OF A TUMORAL PATHOLOGY COMPRISING AN AGENT MODULATING THE POLYMERIZATION STATE OF ACTIN” (priority 2001, published 2009).
Starred links: 1 amine or outer side, 2 acyl side, 3 side chain; linkers in the order of their positions; H or OH if unused. Non-standard residues stand in square brackets, D forms with d. Residues, ends and D or L forms follow the SMILES beside them. X1 = CC[C@H](C)[C@H](OC(=O)[C@@H](C)[C@@H](CC)N[*:1])C(=O)[*:2]; X2 = C[C@H](N[*:1])C(=O)C(C)(C)C(=O)[*:2]; NMeY = CN[C@@H](Cc1ccc(O)cc1)C(=O)O; NMeL = CN[C@@H](CC(C)C)C(=O)O; NMeV = CN[C@H](C(=O)O)C(C)C

How the values were obtained:
[1] = system: EWS-Fli cells; assay: Morphological modification of EWS-Fli cells (actin filaments stained with phalloidin-FITC); type: cell-based, murine; details: FIG. 12
Protocol: The cells (5×10^3) were cultured on glass slides 10 mm in diameter and kept in culture for 24 hours. After fixation (3% paraformaldehyde) and permeabilization (0.2% TritonX100), the actin filaments of the cells were immunostained by phalloidin coupled to FITC. Untreated NIH3T3; NIH3T3 transfected by EWS-Fli (EF); EF incubated in the presence of 10 μM or 100 μM of jasplakinolide; EF incubated with 10 μM or 20 μM of D11 (FIG. 12).

[2] = system: NIH3T3 cells; assay: Morphological modification of NIH3T3 cells (actin filaments stained with phalloidin-FITC); type: cell-based, murine; details: same concentrations (10 or 20 nM); FIG. 12
Protocol: The cells (5×10^3) were cultured on glass slides 10 mm in diameter and kept in culture for 24 hours. After fixation (3% paraformaldehyde) and permeabilization (0.2% TritonX100), the actin filaments of the cells were immunostained by phalloidin coupled to FITC. […]

[3] = system: EWS-Fli cells; assay: Toxicity of dolastatin-11 by MTT test on EWS-Fli cells; type: cell-based, murine; details: low concentrations (10 or 20 nM), FIG. 13
Protocol: (§1) The cells (10^4 per well) were cultured in 96-well plates in the presence of different concentrations of D11. Monitoring of the toxicity of D11 in relation to time was performed by means of an MTT test on the NIH3T3 cells (A) and the EWS-Fli cells (B). The results are illustrated in FIG. 13.

[4] = Survival of the mice (tolerated dose); details: intravenous
[5] = system: actin; assay: In vitro measurement of actin polymerization by fluorescence anisotropy in EWS-Fli cell extracts; type: biochemical; details: dolastatin 11 added in the polymerization buffer of EWS-Fli cell extracts; deficit versus NIH3T3 extracts; FIG. 11
Protocol: Cell extracts of NIH3T3 cells or EWS-Fli cells were brought into the presence of actin Alexa 488 in a buffer G ([…] pH 8.1; 170 μM CaCl2; 170 μM DTT; 170 μM ATP). The polymerization reaction was triggered by addition of a buffer P (KCl 51 mM, MgCl2 1 mM and ATP 0.5 mM). Dolastatin (μM) was added to the cell extracts of the EWS-Fli cells at the same time as the buffer P. Polymerization of actin was monitored by fluorescence anisotropy on a Beacon 2000. The results obtained are illustrated in FIG. 11.

[6] = system: EWS-Fli cells; assay: Development of tumors in the nude mouse after subcutaneous injection of EWS-Fli cells; type: in vivo; details: nude mice, 10 μg/kg intravenous on 5th, 8th and 11th days after EWS-Fli cell injection, measured on 28th day; FIG. 14
Protocol: Twenty-four hours after irradiation (5 Gy) of the mice, the EWS-Fli cells (10^6) were inoculated via the subcutaneous route. The mice were then separated into two lots, with the first lot corresponding to the untreated mice and the second lot to the mice having received three injections of dolastatin 11 via the intravenous route (10 μg/kg) on the 5th, 8th and 11th days after injection of the EWS-Fli cells. […]

[7] = system: NIH3T3 cells; assay: Toxicity of dolastatin-11 by MTT test on NIH3T3 cells; type: cell-based, murine; details: low concentrations (10 or 20 nM), FIG. 13
Protocol: as §1

## CC[C@H](C)[C@@H]1OC(=O)[C@@H](C)[C@@H](CC)NC(=O)[C@H](C)NC(=O)C(C)(C)C(=O)[C@H](C)NC(=O)[C@H](Cc2ccc(OC)cc2)N(C)C(=O)[C@H](C(C)C)N(C)C(=O)CNC(=O)[C@H](CC(C)C)N(C)C(=O)CNC1=O [dolastatin 11] (cyclo(A[X1]G[NMeL]G[NMeV][NMeY](Me)[X2]))
[1]; EWS-Fli cells incubated with 10 μM or 20 μM of D11
  effect on the cytoskeleton: effect
[1]; EWS-Fli cells, 10 or 20 nM
  contact structures between the cells: reestablished the contact structures between the cells
  stress fibers and morphology of the cells: restored the stress fibers of the cells with a morphology close to that of NIH3T3 cells
[2]
  morphology of NIH3T3 cells: did not modify in the least
[3]
  cytotoxicity or cytostaticity (MTT test): no cytotoxicity or cytostaticity effects were observed
[4]
  dose used (10 μg/kg) relative to the dose not affecting survival of the mice: five times weaker than the dose not affecting survival of the mice
[5]
  capacity of cell extracts to polymerize actin (fluorescence anisotropy): can compensate in part for this deficit
[6]
  development of tumors: markedly delayed
[7]
  cytotoxicity or cytostaticity (MTT test): no cytotoxicity or cytostaticity effects were observed

## C/C1=C\[C@H](C)C[C@H](C)OC(=O)C[C@H](c2ccc(O)cc2)NC(=O)[C@@H](Cc2c(Br)[nH]c3ccccc23)N(C)C(=O)[C@H](C)NC(=O)[C@@H](C)C1 [jasplakinolide]
[1]; EWS-Fli cells incubated with 10 μM or 100 μM of jasplakinolide
  effect on the cytoskeleton: effect
